Source: US20230077362A1 (CORTEVA AGRISCIENCE LLC, priority 2019, published 2023)
Read-outs that look alike come from different tables or passages of the source.

Experiments:
[1] = system: Cabbage Looper (Trichoplusia ni) ("CL"), second instar larvae; test: Bioassay on cabbage looper (CL), 128-well diet tray assay; assay type: in vivo; conditions: Trichoplusia ni
How it was run: (§1)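 Covered trays were held at 25° C. under a 14:10 light-dark cycle for five to seven days. Percent mortality was then scored in each well, and activity across eight wells was averaged.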

[2] = system: Beet Armyworm (Spodoptera exigua) ("BAW"), second instar larvae; test: Bioassay on beet armyworm (BAW), 128-well diet tray assay; assay type: in vivo; conditions: Spodoptera exigua
How it was run: as §1

[3] = read-out: CL (Biological Results, rating)
[4] = read-out: BAW (Biological Results, rating)

Cc1ccc(COCC(F)(F)F)c(N2C(=O)CS/C2=N\C(=O)Nc2ccc(-c3cn(-c4ccc(C(F)(F)F)cn4)cn3)cc2C)c1 [Compound J511, (Z)-1-(3-(5-Methyl-2-((2,2,2-trifluoroethoxy)methyl)phenyl)-4-oxothiazolidin-2-ylidene)-3-(2-methyl-4-(1-(5-(trifluoromethyl)pyridin-2-yl)-1H-imidazol-4-yl)phenyl)urea]
pest or weed control at 50 µg/cm2 ([1]; read-out: CL rating): 50 to 100%
pest or weed control at 50 µg/cm2 ([2]; read-out: BAW rating): 50 to 100%

CC(C)c1ccc(N(C)C)cc1N1C(=O)CS/C1=N\C(=O)Nc1c(F)cc(-c2ncn(-c3ccc(OC(F)(F)F)cc3)n2)cc1F [Compound J82, (Z)-1-(2,6-Difluoro-4-(1-(4-(trifluoromethoxy)phenyl)-1H-1,2,4-triazol-3-yl)phenyl)-3-(3-(5-(dimethylamino)-2-isopropylphenyl)-4-oxothiazolidin-2-ylidene)urea]
pest or weed control at 50 µg/cm2 [1, 3]: 50 to 100%
pest or weed control at 50 µg/cm2 [2, 4]: 50 to 100%

CCCOc1ccc(C)cc1N1C(=O)CS/C1=N\C(=O)Nc1ccc(-c2cn(-c3ccc(S(F)(F)(F)(F)F)cc3)cn2)cc1F [Compound J595, (Z)-1-(2-Fluoro-4-(1-(4-(pentafluoro-λ^6-sulfaneyl)phenyl)-1H-imidazol-4-yl)phenyl)-3-(3-(5-methyl-2-propoxyphenyl)-4-oxothiazolidin-2-ylidene)urea]
pest or weed control at 50 µg/cm2 ([1]; read-out: CL rating): 50 to 100%
pest or weed control at 50 µg/cm2 ([2]; read-out: BAW rating): 50 to 100%

CCCc1ccc(N(C)C)cc1N1C(=O)CS/C1=N\C(=O)Nc1ccc(-c2ncn(-c3ccc(OC(F)(F)F)cc3)n2)cc1C#N [Compound J247, (Z)-1-(2-Cyano-4-(1-(4-(trifluoromethoxy)phenyl)-1H-1,2,4-triazol-3-yl)phenyl)-3-(3-(5-(dimethylamino)-2-propylphenyl)-4-oxothiazolidin-2-ylidene)urea]
pest or weed control at 50 µg/cm2 [1, 3]: 50 to 100%
pest or weed control at 50 µg/cm2 [2, 4]: 50 to 100%

COc1ccc(C(C)C)c(N2C(=O)CS/C2=N\C(=O)Nc2ccc(-c3ncn(-c4ccc(OC(F)(F)F)cc4)n3)cc2C)c1 [Compound J54, (Z)-1-(3-(2-Isopropyl-5-methoxyphenyl)-4-oxothiazolidin-2-ylidene)-3-(2-methyl-4-(1-(4-(trifluoromethoxy)phenyl)-1H-1,2,4-triazol-3-yl)phenyl)urea]
pest or weed control at 50 µg/cm2 [1, 3]: 50 to 100%
pest or weed control at 50 µg/cm2 [2, 4]: 50 to 100%

Cc1ccc(COCC(F)(F)F)c(N2C(=O)CS/C2=N\C(=O)Nc2ccc(-n3cnc(-c4ccc(OC(F)(F)F)cc4)n3)cc2F)c1 [Compound J689, (Z)-1-(2-Fluoro-4-(3-(4-(trifluoromethoxy)phenyl)-1H-1,2,4-triazol-1-yl)phenyl)-3-(3-(5-methyl-2-((2,2,2-trifluoroethoxy)methyl)phenyl)-4-oxothiazolidin-2-ylidene)urea]
pest or weed control at 50 µg/cm2 ([1]; read-out: CL rating): 50 to 100%
pest or weed control at 50 µg/cm2 ([2]; read-out: BAW rating): 50 to 100%

COC(C)c1ccc(C)cc1N1C(=O)CS/C1=N\C(=O)Nc1ccc(-n2cnc(-c3ccc(C(F)(F)F)cc3)n2)cc1F (stereo not shown) [Compound J695, (Z)-1-(2-Fluoro-4-(3-(4-(trifluoromethyl)phenyl)-1H-1,2,4-triazol-1-yl)phenyl)-3-(3-(2-(1-methoxyethyl)-5-methylphenyl)-4-oxothiazolidin-2-ylidene)urea]
pest or weed control at 50 µg/cm2 ([1]; read-out: CL rating): 50 to 100%
pest or weed control at 50 µg/cm2 ([2]; read-out: BAW rating): 50 to 100%

Cc1ccc(COCc2c(F)c(F)c(F)c(F)c2F)c(N2C(=O)CS/C2=N\C(=O)Nc2ccc(-c3ncn(-c4ccc(OC(F)(F)F)cc4)n3)cc2F)c1 [Compound J622, (Z)-1-(2-Fluoro-4-(1-(4-(trifluoromethoxy)phenyl)-1H-1,2,4-triazol-3-yl)phenyl)-3-(3-(5-methyl-2-(((perfluorophenyl)methoxy)methyl)phenyl)-4-oxothiazolidin-2-ylidene)urea]
pest or weed control at 50 µg/cm2 ([1]; read-out: CL rating): 50 to 100%
pest or weed control at 50 µg/cm2 ([2]; read-out: BAW rating): 50 to 100%
